Test results: patent US6946137B2, “Methods for the controlled delivery of pharmacologically active compounds” (IDEXX Laboratories, Inc., priority 2001, dated 2005)
Structures can show the parent of a compound that is named as a salt. Where two headings read alike, the source gives them in different places.

Key:
[1] = in vitro release from dialysis bag into saline; assay type: physicochemical
[2] = stated as background, no test described, cited from earlier work
cats = conditions: previous data; cited from earlier work

| Compound | solubility in water / aqueous solutions (in words), known forms [2] | other results |
| --- | --- | --- |
| CNCCC(Oc1ccc(C(F)(F)F)cc1)c1ccccc1 (centres unmarked) [fluoxetine base formulation, Fluoxetine] |  | time over which the formulation was released in vitro ([1]; 100 mg/ml in 10% propylene glycol in glycerol formal, dialysis technique): about 160 hrs |
| CN(C)C1C(O)=C(C(N)=O)C(=O)[C@@]2(O)C(O)=C3C(=O)c4c(O)cccc4[C@@](C)(O)C3C(O)C12 (some centres unmarked) [hydrochloride salt of oxytetracycline, Oxytetracycline] | readily soluble in water |  |
| COCCc1ccc(OCC(O)CNC(C)C)cc1 (centres unmarked) [metoprolol base, Metoprolol] |  | in vitro release rate (in words) ([1]; dialysis bag into saline): diffused off rapidly |
| COCCc1ccc(OCC(O)CNC(C)C)cc1 (centres unmarked) [metoprolol succinate, Metoprolol] | highly soluble in water |  |
| CC[C@H]1OC(=O)C[C@@H](O)[C@H](C)[C@@H](OC2OC(C)C(O)C(N(C)C)C2O)[C@@H](CCN2C[C@@H](C)C[C@H](C)C2)C[C@@H](C)C(=O)/C=C/C(C)=C/[C@@H]1COC1OC(C)C(O)C(OC)C1OC (some centres unmarked) [phosphate salt of tilmicosin, Tilmicosin] |  | solubility in water / aqueous solutions (in words), known forms ([2]; listed as tilmicosin phosphate salt): highly soluble; dosage that could be fatal to cats (cats): 25 mg/kg |
| CC[C@H]1OC(=O)C[C@@H](O)[C@H](C)[C@@H](OC2OC(C)C(O)C(N(C)C)C2O)[C@@H](CCN2C[C@@H](C)C[C@H](C)C2)C[C@@H](C)C(=O)/C=C/C(C)=C/[C@@H]1COC1OC(C)C(O)C(OC)C1OC (some centres unmarked) [tilmicosin basic form, Tilmicosin] | moderately soluble |  |
| CC[C@H]1OC(=O)C[C@@H](O)[C@H](C)[C@@H](OC2OC(C)C(O)C(N(C)C)C2O)[C@@H](CCN2C[C@@H](C)C[C@H](C)C2)C[C@@H](C)C(=O)/C=C/C(C)=C/[C@@H]1COC1OC(C)C(O)C(OC)C1OC (some centres unmarked) [tilmicosin chloride salt, Tilmicosin] | highly soluble |  |
